# ChEMBL document CHEMBL4229523, “Monoterpene's multiple free radical scavenging capacity as compared with the radioprotective agent cysteamine and amifostine” (Bioorg Med Chem Lett, 2018)
# Experiments:
# Format in all cases: functional
# [1] = Antioxidant activity assessed as trolox equivalent of hydroxyl radical scavenging activity by DMPO spin trap-based ESR spectrometric method
# [2] = Antioxidant activity assessed as trolox equivalent of alkoxyl radical scavenging activity by DMPO spin trap-based ESR spectrometric method
# [3] = Antioxidant activity assessed as trolox equivalent of tert-butyl peroxyl radical scavenging activity by CYPMPO spin trap-based ESR spectrometric method
# [4] = Antioxidant activity assessed as trolox equivalent of superoxide radical scavenging activity by CYPMPO spin trap-based ESR spectrometric method
# [5] = Antioxidant activity assessed as trolox equivalent of singlet oxygen scavenging activity by TMPD spin trap-based ESR spectrometric method
# [6] = Antioxidant activity assessed as trolox equivalent of methyl radical scavenging activity by DMPO spin trap-based ESR spectrometric method
# [7] = Antioxidant activity assessed as rate of methyl radical scavenging activity by DMPO spin trap-based ESR spectrometric method
SMILES,Activity [1] [equiv],Activity [2] [equiv],Activity [3] [equiv],Activity [4] [equiv],Activity [5] [equiv],Activity [6] [equiv],K [7] [×10⁶ /M/s]
C=CC(C)(O)CCC=C(C)C (configuration not stated),0.38,0.045,0,0.27,0.046,0,–
NCCS,1.5,0.045,0.08,0.13,1.1,0.18,2.5
CC1CCC(C(C)C)C(O)C1 (configuration not stated),0.49,0,0.31,0.39,0.22,0,–
NCCCNCCSP(=O)(O)O,0.76,0.054,0.058,0.3,0.17,0.2,2.8
Cc1ccc(C(C)C)c(O)c1,0.3,0.013,0.22,0.24,0.16,0,–
